Measured values as given in patent US4277479A, “Tetrazolylalkoxycarbostyril derivatives and pharmaceutical compositions containing them” (Otsuka Pharmaceutical Co., Ltd., priority 1978, dated 1981).

How the values were obtained:
Acute toxicity test = conditions: mouse, in vivo; male mice, oral administration
Method: The test compounds were administered orally to the mice and LD50 (mg/kg) of the compounds was determined.

[1] = system: cerebral blood flow, bastard dog; test: Increasing effect of cerebral blood flow in anesthetized dog; assay type: in vivo; conditions: Canis lupus familiaris, iv; for change in vivo at 0.3 mg/kg: dosage 300 μg/kg
Method: (Test of increasing effect of cerebral blood flow)
Thus, a bastard dog (male, 12-20 kg of body weight) was fixed in a prone (position) and was anesthetized with […] of pentobarbital sodium and forced to breathe at a frequency of respiration of 20 times/minute. Then, the skull was bared and the surface bone was removed to expose the venous sinus by using a grinder and the venous blood was taken out from the venas which was cannulizated. The amount of venous blood flow was measured by using an electromagnetic blood flow meter and next measured by using drop-counter to measure the number of drops of blood per 10 seconds.
The increasing effect of cerebral blood flow was calculated by comparing the number of blood drops in 30 seconds at the peak of increasement shown before and after the administration of compound to be tested. Each of the compounds to be tested was dissolved in dimethylformamide and diluted with physiological saline solution and administered through a cannule being inserted into the profunda femoris vein.

[2] = system: rabbit platelet (collagen-induced aggregation); test: Platelet aggregation inhibitory effect, collagen-induced aggregation in rabbit platelet; assay type: cell-based; conditions: Oryctolagus cuniculus, read-out: Inhibition effect on collagen-induced aggregation in rabbit platelet; for inhibition at 100 µM: concentration of the test compound solution 10^-4 mole; for inhibition at 10 µM: concentration of the test compound solution 10^-5 mole; for inhibition at 1 µM: concentration of the test compound solution 10^-6 mole
Source text: (§1) The blood sample used for the test is a 1/9 (by volume) mixture of sodium citrate and whole blood collected from rabbit. Said sample is subjected to 10-minute centrifugal separation at 1,000 r.p.m. to obtain a platelet rich plasma (PRP). The thus obtained PRP is separated, and the remaining blood sample is further subjected to 15-minute centrifugal separation at 3,000 r.p.m. to obtain a platelet poor plasma (PPP).
(§2) The number of platelets in the PRP is counted by the Brecher-Clonkite Method, and the PRP is diluted with the PPP to prepare a PRP sample with platelet concentration of 300,000/mm^3 for the adenosine diphosphate (ADP)-induced aggregation test. There is also prepared a PRP sample with platelet concentration of 450,000/mm^3 for the collagen-induced aggregation test.
(§3) 0.6 Ml of said PRP sample is added into 0.01 ml of a solution of a test compound of a predetermined concentration and the mixture is placed in a 37° C. thermostat for one minute. Then 0.07 ml of an ADP or collagen solution is added to the mixture. Transmittance of this mixture is determined and the change of transmittance is recorded by using the aggregometer at stirrer speed of 1,100 r.p.m. […] ADP is adjusted to a concentration of 7.5×10^-5 M, and the collagen solution is prepared by triturating 100 mg of collagen with 5 ml of said buffer and the supernatant is used as collagen inducer. Adenosine and acetylsalicylic acid are used as controls for the ADP-induced aggregation test and the collagen-induced aggregation test, respectively. The platelet aggregation inhibitory effect is measured in terms of percent inhibition with respect to the aggregation rate of the controls. The aggregation rate is calculated from the following formula: [formula] wherein a: transmittance of PRP
(§4) b: transmittance of PRP containing a test compound and an aggregation inducer
(§5) The compounds tested are as follows.

[3] = system: rabbit platelet (ADP-induced aggregation); test: Platelet aggregation inhibitory effect, ADP-induced aggregation in rabbit platelet; assay type: cell-based; conditions: Oryctolagus cuniculus; for inhibition at 100 µM: concentration of the test compound solution 10^-4 mole; for inhibition at 100 µM / inhibition at 10 µM: read-out: Inhibition effect on ADP-induced aggregation in rabbit platelet; for inhibition at 10 µM: concentration of the test compound solution 10^-5 mole; for inhibition at 1 µM: concentration of the test compound solution 10^-6 mole
Source text: as §1, §2, §3, §4, §5

thrombosis = conditions: administered orally or intravenously to mammals including humans; Japanese Patent Kokai No. 125,930/73; cited from earlier work
blood platelets = conditions: at low concentration; Japanese Patent Kokai No. 125,930/73; cited from earlier work
[4] = through profunda femoris vein, dog

## O=c1ccc2cc(OCCCc3nnnn3Cc3ccccc3)ccc2[nH]1 [Compound 4, 6-[3-(1-Benzyltetrazol-5-yl)propoxy]carbostyril]
Acute toxicity test
  LD50: > 1000 mg/kg
[1]; [4]
  change in vivo at 0.3 mg/kg: 65.8%
[2]
  inhibition at 100 µM: 100%
  inhibition at 10 µM: 72.5%
  inhibition at 1 µM: 10.8%
[3]
  inhibition at 100 µM: 100%
  inhibition at 10 µM: 45.5%
  inhibition at 1 µM: 3.7%

## O=c1ccc2cc(OCCCc3nnnn3-c3ccccc3)ccc2[nH]1 [Compound 9, 6-[3-(1-Phenyltetrazol-5-yl)propoxy]carbostyril]
Acute toxicity test
  LD50: > 1000 mg/kg
[1]; [4]
  change in vivo at 0.3 mg/kg: 69.9%
[2]
  inhibition at 100 µM: 100%
  inhibition at 10 µM: 100%
  inhibition at 1 µM: 32.8%
[3]
  inhibition at 100 µM: 100%
  inhibition at 10 µM: 45.1%
  inhibition at 1 µM: 26.8%

## CC(C)(C)NCC(O)COc1cccc2c1CCC(=O)N2 (centres unmarked) [5-(2'-hydroxy-3-tert-butylamino)-propoxy-3,4-dihydrocarbostyril]
thrombosis
  effectiveness for preventing and treating thrombosis: very effective for preventing and treating thrombosis
Blood platelets
  inhibition of the aggregation of blood platelets: could specifically inhibit the aggregation of blood platelets

## Cn1c(=O)ccc2cc(OCCCc3nnnn3C3CCCCC3)ccc21 [Compound 8, 1-Methyl-6-[3-(1-cyclohexyltetrazol-5-yl)propoxy]carbostyril]
Acute toxicity test
  LD50: > 1000 mg/kg
[2]
  inhibition at 100 µM: 91.5%
  inhibition at 10 µM: 43.4%
  inhibition at 1 µM: 18.6%
[3]
  inhibition at 100 µM: 87.8%
  inhibition at 10 µM: 42.4%
  inhibition at 1 µM: 21.3%

## COc1ccc(Cc2nccc3cc(OC)c(OC)cc23)cc1OC [Papaverine, papaverine, reference compound]
[1]; read-out: Increasing effect of cerebral blood flow
  change in vivo at 1 mg/kg: 78.9%

## O=C1CCc2cc(OCCCc3nnnn3C3CCCCC3)ccc2N1 [Compound 3, 6-[3-(1-Cyclohexyltetrazol-5-yl)propoxy]-3,4-dihydrocarbostyril]
Acute toxicity test
  LD50: > 1000 mg/kg
[1]; dosage 30 μg/kg, through profunda femoris vein, dog
  change in vivo at 0.03 mg/kg: 69%
[2]
  inhibition at 100 µM: 100%
  inhibition at 10 µM: 53.5%
  inhibition at 1 µM: 10.3%
[3]
  inhibition at 100 µM: 76.7%
  inhibition at 10 µM: 59.6%
  inhibition at 1 µM: 9.6%

## CCc1ccc(-n2nnnc2COc2ccc3c(c2)CCC(=O)N3)cc1 [Compound 15, 6-[1-(4-Ethylphenyl)tetrazol-5-yl-methoxy]3,4-dihydrocarbostyril]
Acute toxicity test
  LD50: > 1000 mg/kg
[2]
  inhibition at 100 µM: 100%
  inhibition at 10 µM: 35.1%
[3]
  inhibition at 100 µM: 78.5%
  inhibition at 10 µM: 38.9%

## Cc1cc(=O)[nH]c2ccc(OCCCc3nnnn3C3CCCCC3)cc12 [Compound 10, 4-Methyl-6-[3-(1-cyclohexyltetrazol-5-yl)propoxy]carbostyril]
Acute toxicity test
  LD50: > 1000 mg/kg
[2]
  inhibition at 100 µM: 100%
  inhibition at 10 µM: 100%
  inhibition at 1 µM: 18.2%
[3]
  inhibition at 100 µM: 100%
  inhibition at 10 µM: 61.7%
  inhibition at 1 µM: 28.1%

## O=c1ccc2cc(OCCCc3nnnn3C3CCCCC3)ccc2n1Cc1ccccc1 [Compound 12, 1-Benzyl-6-[3-(1-cyclohexyltetrazol-5-yl)propoxy]carbostyril]
Acute toxicity test
  LD50: > 1000 mg/kg
[2]
  inhibition at 100 µM: 92.6%
  inhibition at 10 µM: 41.5%
  inhibition at 1 µM: 21.8%
[3]
  inhibition at 100 µM: 76.8%
  inhibition at 10 µM: 35.2%

## CC(C)n1nnnc1CCCOc1ccc2[nH]c(=O)ccc2c1 [Compound 2, 6-[3-(1-Isopropyltetrazol-5-yl)propoxy]carbostyril]
Acute toxicity test
  LD50: > 1000 mg/kg
[2]
  inhibition at 100 µM: 100%
  inhibition at 10 µM: 58.1%
  inhibition at 1 µM: 11.8%
[3]
  inhibition at 100 µM: 74.7%
  inhibition at 10 µM: 36.8%
  inhibition at 1 µM: 11.9%
